Patent publication EP0483271B1, “PEPTIDES CONTAINING DIAMINO-GLYCOLS AS TRANSITION-STATE MIMICS” (THE UPJOHN COMPANY, priority 1989, dated 1993)
Structures can show the parent of a compound that is named as a salt.

Test system: renin
Assay: renin inhibitory activity, in vitro test (as described in US-A-4880781 and EP-A-0 173 481, pages 103-105)
Assay type: biochemical
Settings: at 10⁻⁸M; printed under the heading IC₅₀(M)
Description: In the examples below, the renin inhibitory activity of the compounds of the present invention (IC₅₀'s) are determined using the in vitro test described in US-A-4880 781 (U.S. patent application, Serial No. 07/147,073, filed 20 January 1988), and in EP-A-0 173 481, published 5 March 1986, pages 103-105, which are hereby incorporarted by reference.

Work on `COc1ccc(C[C@H](NC(=O)[C@@H]2CCCN2C(=O)CC[C@H](N)C(=O)O)C(=O)N[C@@H](Cc2c[nH]cn2)C(=O)N[C@@H](CC2CCCCC2)[C@@H](O)[C@@H](O)CC(C)(C)N)cc1` [Example 7, L-Arabino-heptitol6-amino-1,2,5,6,7-pentadeoxy-1-cyclohexyl-2-[[N-[N-(1-L-γ-glutamyl-L-prolyl)-O-methyl-L-tyrosyl]-L-histidyl]-amino]-6-methyl-, tris(trisluoroacetate) salt] yielded an inhibition of 34%.
